Calls of active or inactive are those of the source. The rule behind the calls is not given here.

In data set [1] the test system is NRK-49F. As to the kind of experiment: Inhibition of TGF-beta-induced collagen accumulation in rat NRK-49F cells at 10 uM incubated for 2 days by PSR staining based microscopic analysis relative to control. The note with it: 48 h. Type of data set: functional.
The nature of data set [2]: Cytotoxicity against rat NRK-49F cells assessed as cell viability at 10 uM incubated for 72 hrs by MTT assay. It is filed as cell-based. Conditions: read-out: Activity. (In general: Tetrazolium dyes change colour on reduction, which living cells bring about.)
Data set [3] deals with NRK-49F. Description: Inhibition of TGF-beta-induced collagen accumulation in rat NRK-49F cells incubated for 2 days by PSR staining based microscopic analysis. It is filed as functional, cell-based. Conditions: for IC50: 48 h.
A further data set deals with NIH3T3. As to the kind of experiment: Inhibition of TGF-beta-induced […] migration in mouse NIH/3T3 cells at 1 uM incubated for 24 hrs by Transwell assay. Type of data set: functional, cell-based.
Data set [4] is described as follows: Oral bioavailability in Sprague-Dawley rat 10 mg/kg measured upto 24 hrs. Type of data set: ADME, organism-based. The note with it: in vivo.
Data set [5] has as its system Mus musculus. As to the kind of experiment: Antifibrotic activity against BLM-induced C57BL/6 mouse pulmonary fibrosis model assessed as decrease in bronchioles inflammatory cell infiltration at 50 mg/kg, po administered for 28 days and measured on day 14 and 28 by HE staining based fluorescence microscopy. It is filed as functional, organism-based.
Data set [6] has as its system Mus musculus. As to the kind of experiment: Antifibrotic activity against BLM-induced C57BL/6 mouse pulmonary fibrosis model assessed as reduction in total white blood cells in BALF at 50 mg/kg, po administered for 28 days and measured on day 28. Type of data set: functional, organism-based.
The subject of data set [7] is Mus musculus. As to the kind of experiment: Antifibrotic activity against BLM-induced C57BL/6 mouse pulmonary fibrosis model assessed as decrease in destruction alveolar structure at 50 mg/kg, po administered for 28 days and measured on day 14 and 28 by HE staining based fluorescence microscopy. It is filed as functional, organism-based.
In data set [8] the test system is Mus musculus. Description: Antifibrotic activity against BLM-induced C57BL/6 mouse pulmonary fibrosis model assessed as reduction in lymphocytes in BALF at 50 mg/kg, po administered for 28 days and measured on day 28. Type of data set: functional, organism-based.
Data set [9] has as its system Mus musculus. As to the kind of experiment: Antifibrotic activity against BLM-induced C57BL/6 mouse pulmonary fibrosis model assessed as decrease in perivascular inflammatory cell infiltration at 50 mg/kg, po administered for 28 days and measured on day 14 and 28 by HE staining based fluorescence microscopy. It is filed as functional, organism-based.
The test system of data set [10] is Mus musculus. Description: Antifibrotic activity against BLM-induced C57BL/6 mouse pulmonary fibrosis model assessed as decrease in bronchial epithelial vacuolar degeneration at 50 mg/kg, po administered for 28 days and measured on day 14 and 28 by HE staining based fluorescence microscopy. Type of data set: functional, organism-based.
Data set [11] relates to Mus musculus. As to the kind of experiment: Antifibrotic activity against BLM-induced C57BL/6 mouse pulmonary fibrosis model assessed as reduction in neutrophils in BALF at 50 mg/kg, po administered for 28 days and measured on day 28. It is filed as functional, organism-based.
Data set [12] deals with Mus musculus. As to the kind of experiment: Antifibrotic activity against C57BL/6 mouse pulmonary fibrosis model assessed as reduction in bleomycin-iduced hydroxyproline level at 50 mg/kg, po administered for 28 days and measured on day 14 and 28 by spectrophotometry. It is filed as functional, organism-based.
For data set [13], the system named is Mus musculus. Description: Antifibrotic activity against BLM-induced C57BL/6 mouse pulmonary fibrosis model assessed as decrease in bronchiolar epithelial cell shedding at 50 mg/kg, po administered for 28 days and measured on day 14 and 28 by HE staining based fluorescence microscopy. Type of data set: functional, organism-based.
The subject of data set [14] is Mus musculus. As to the kind of experiment: Antifibrotic activity against BLM-induced C57BL/6 mouse pulmonary fibrosis model assessed as increase in time for reduction of alveoli at 50 mg/kg, po administered for 28 days and measured on day 14 and 28 by HE staining based fluorescence microscopy. It is filed as functional, organism-based.

Usually inhibition stands for the relative decrease from the control value, in per cent. On to `CN1CCN(CC(=O)Nc2ccc(Nc3cc(=O)oc4ccccc34)cc2)CC1`, for which the inhibition at 10 µM in the data set with NRK-49F [1] worked out at 26.8%. Also, in data set [2], the viability at 72 h, 10 µM was 87.5%.

In the data set on NRK-49F [1], `O=C(CN1CCCCC1)Nc1ccc(Nc2cc(=O)oc3ccccc23)cc1` returned an inhibition at 10 µM of 75.2%. Also, the viability at 72 h, 10 µM in data set [2] came to 43.6%.

Compound `C[C@H]1CCCN(CC(=O)Nc2ccc(Nc3cc(=O)oc4ccccc34)cc2F)C1` yielded an inhibition at 10 µM with NRK-49F [1] of 21.9%. In addition, in [2], the viability at 72 h, 10 µM stood at 88.5%.

The IC50 is the concentration that inhibits the measured activity by half. In the data set with NRK-49F [1], `C[C@H]1CCCN(CC(=O)Nc2ccc(Nc3cc(=O)oc4ccccc34)cc2)C1` showed an inhibition at 10 µM of 80.2%. Moreover, in the data set with NRK-49F [3], the inhibition entry was “Dose-dependent effect” and the IC50 was determined as 3.96 µM. In addition, the inhibition entry in the data set with NIH3T3 was “Active”. In [2], the viability at 72 h, 10 µM turned out to be 91.5%.

Regarding `CN1CCN(CC(=O)Nc2ccc(Nc3cc(=O)oc4ccccc34)cc2F)CC1`, at 10 µM the inhibition in the data set on NRK-49F [1] was 36.8%. In addition, the viability at 72 h, 10 µM in data set [2] worked out at 78.1%.

In turn, `COc1ccc2c(Nc3ccc(NC(=O)CN4CCCC4)cc3)cc(=O)oc2c1` showed an inhibition at 10 µM with NRK-49F [1] of 15.7%. For the same compound, the viability at 72 h, 10 µM in [2] stood at 52%.

Regarding `COc1ccc2c(Oc3ccc(NC(=O)CN4CCOCC4)cc3)cc(=O)oc2c1`, at 10 µM the inhibition in the data set with NRK-49F [1] was 78.3%. In the data set on NRK-49F [3], the inhibition entry is “Dose-dependent effect” and the IC50 is 3.71 µM. The inhibition result in the data set on NIH3T3 is “Active”. Besides, the viability at 72 h, 10 µM in data set [2] amounted to 96.5%.

In the data set with NRK-49F [1], `O=C(CN1CCCC1)Nc1ccc(Nc2cc(=O)oc3ccccc23)cc1` gave an inhibition at 10 µM of 12.4%. Further, the viability at 72 h, 10 µM in data set [2] was found to be 62%.

`COc1ccc2c(Nc3ccc(NC(=O)CN4CCC[C@H](C)C4)cc3)cc(=O)oc2c1` came in with an inhibition at 10 µM in the data set with NRK-49F [1] of 72.7%. Also, the viability at 72 h, 10 µM in [2] was 90.1%.

On to `O=C(CN1CCCCC1)Nc1ccc(Nc2cc(=O)oc3ccccc23)cc1F`, for which, in the data set on NRK-49F [1], the inhibition at 10 µM came out at 11.3%. Further, in data set [2], the viability at 72 h, 10 µM came out at 67.7%.

On to `C[C@H]1CCCN(CC(=O)Nc2ccc(Nc3cc(=O)oc4ccc([N+](=O)[O-])cc34)cc2)C1`, for which the inhibition at 10 µM in the data set on NRK-49F [1] came to 28.7%. Further, the viability at 72 h, 10 µM in data set [2] came to 17.8%.

Regarding `C[C@H]1CCCN(CC(=O)Nc2ccc(Oc3cc(=O)oc4ccccc34)cc2)C1`, the inhibition at 10 µM with NRK-49F [1] stood at 75.3%. The viability at 72 h, 10 µM in [2] was 98%.

With `O=C(CN1CCOCC1)Nc1ccc(Nc2cc(=O)oc3ccccc23)cc1F`, the inhibition at 10 µM in the data set with NRK-49F [1] is 34.5%. In addition, the viability at 72 h, 10 µM in data set [2] came out at 72.3%.

With `O=C(CN1CCCC1)Nc1ccc(Nc2cc(=O)oc3ccccc23)cc1F`, at 10 µM the inhibition with NRK-49F [1] was 33.3%. Besides, in data set [2], the viability at 72 h, 10 µM stood at 74.3%.

Compound `CN1CCN(CC(=O)Nc2ccc(Oc3cc(=O)oc4ccccc34)cc2)CC1` yielded an inhibition at 10 µM with NRK-49F [1] of 24%. For the same compound, in data set [2], the viability at 72 h, 10 µM was determined as 83.6%.

`CN1CCN(CC(=O)Nc2ccc(Nc3cc(=O)oc4ccc([N+](=O)[O-])cc34)cc2)CC1` had an inhibition at 10 µM in the data set on NRK-49F [1] of 22.3%. Further, the viability at 72 h, 10 µM in data set [2] amounted to 32.1%.

The compound `O=C(CN1CCCC1)Nc1ccc(Oc2cc(=O)oc3ccccc23)cc1` gave an inhibition at 10 µM in the data set with NRK-49F [1] of 18.8%. Besides, the viability at 72 h, 10 µM in [2] is 82.9%.

`O=C(CN1CCOCC1)Nc1ccc(Oc2cc(=O)oc3ccccc23)cc1` displayed an inhibition at 10 µM in the data set with NRK-49F [1] of 34.6%. Besides, in [2], the viability at 72 h, 10 µM worked out at 97%.

`O=C(CN1CCCC1)Nc1ccc(Nc2cc(=O)oc3ccc([N+](=O)[O-])cc23)cc1` returned an inhibition at 10 µM in the data set on NRK-49F [1] of 17.9%. Further, the viability at 72 h, 10 µM in data set [2] is 45.3%.

Turning to `COc1ccc2c(Oc3ccc(NC(=O)CN4CCCCC4)cc3)cc(=O)oc2c1`, in the data set with NRK-49F [1], the inhibition at 10 µM is 73.5%. Besides, in [2], the viability at 72 h, 10 µM amounted to 90.4%.

In the data set on NRK-49F [1], `COc1ccc2c(Nc3ccc(NC(=O)CN4CCN(C)CC4)cc3)cc(=O)oc2c1` showed an inhibition at 10 µM of 80.2%. Also, in the data set on NRK-49F [3], the inhibition entry was “Dose-dependent effect” and half-maximal inhibition (IC50) required 4.35 µM. Besides, in the data set with NIH3T3, the inhibition result is “Active”. In addition, in data set [2], the viability at 72 h, 10 µM worked out at 87.2%.

Regarding `COc1ccc2c(Oc3ccc(NC(=O)CN4CCCC4)cc3)cc(=O)oc2c1`, the inhibition at 10 µM in the data set with NRK-49F [1] amounted to 8.07%. The viability at 72 h, 10 µM in data set [2] came out at 93.3%.

For the compound `COc1ccc2c(Nc3ccc(NC(=O)CN4CCCCC4)cc3)cc(=O)oc2c1`, the inhibition at 10 µM in the data set with NRK-49F [1] worked out at 74.5%. Further, the viability at 72 h, 10 µM in [2] worked out at 41.3%.

The bioavailability is the share of a dose that reaches the circulation, judged against a reference dose that is usually intravenous. Low values mean little systemic uptake, high ones much systemic uptake. Compound `COC(=O)c1ccc2c(c1)NC(=O)/C2=C(\Nc1ccc(N(C)C(=O)CN2CCN(C)CC2)cc1)c1ccccc1` [NINTEDANIB] had a bioavailability in data set [4] of 12%. Also, the result in the data set on Mus musculus [5], with Mus musculus [6], with Mus musculus [7], in the data set on Mus musculus [8], in the data set on Mus musculus [9] and with Mus musculus [10] was Active. For the same compound, the result with Mus musculus [11], in the data set with Mus musculus [13] and in the data set on Mus musculus [14] was Active. In addition, 10 µM produced 95.5% inhibition in the data set on NRK-49F [1]. In the data set on NRK-49F [3], 1.1 µM corresponded to half-maximal inhibition (IC50). Further, the result in the data set on Mus musculus [12] was inactive. Further, the viability at 72 h, 10 µM in data set [2] turned out to be 40%.

`COc1ccc2c(Oc3ccc(NC(=O)CN4CCC[C@H](C)C4)cc3)cc(=O)oc2c1` yielded an inhibition at 10 µM in the data set on NRK-49F [1] of 32.6%. For the same compound, the viability at 72 h, 10 µM in data set [2] was found to be 90.5%.

Regarding `COc1ccc2c(Oc3ccc(NC(=O)CN4CCN(C)CC4)cc3)cc(=O)oc2c1`, testing at 10 µM in the data set on NRK-49F [1] gave an inhibition of 65.4%. For the same compound, the viability at 72 h, 10 µM in [2] worked out at 95.6%.

In the data set with NRK-49F [1], `COc1ccc2c(Nc3ccc(NC(=O)CN4CCOCC4)cc3)cc(=O)oc2c1` gave an inhibition at 10 µM of 72.9%. Also, the viability at 72 h, 10 µM in data set [2] came out at 89.1%.

On to `O=C(CN1CCCCC1)Nc1ccc(Nc2cc(=O)oc3ccc([N+](=O)[O-])cc23)cc1`, for which testing at 10 µM in the data set with NRK-49F [1] gave an inhibition of 15.4%. The viability at 72 h, 10 µM in [2] is 20.3%.

For `O=C(CN1CCOCC1)Nc1ccc(Nc2cc(=O)oc3ccc([N+](=O)[O-])cc23)cc1`, the inhibition at 10 µM in the data set on NRK-49F [1] turned out to be 31.7%. Moreover, in data set [2], the viability at 72 h, 10 µM amounted to 23.1%.

Compound `O=C(CN1CCOCC1)Nc1ccc(Nc2cc(=O)oc3ccccc23)cc1` had an inhibition at 10 µM with NRK-49F [1] of 41.8%. Moreover, in data set [2], the viability at 72 h, 10 µM was determined as 75.2%.

(Values after ChEMBL document CHEMBL4312017, “Synthesis and discovery of new compounds bearing coumarin scaffold for the treatment of pulmonary fibrosis” (Eur J Med Chem, 2020).)
